Experimental data from ChEMBL document CHEMBL1131874, “Synthesis and apoptogenic activity of fluorinated ceramide and dihydroceramide analogues” (1999).

Assays:
[1] = Apoptogenic activity against K-422 cells after 24 hr treatment at concentration 30 uM; format: functional, cell-based; conditions: Homo sapiens
[2] = Apoptogenic activity against Molt cells after 24 hr treatment at concentration 30 uM; format: functional, cell-based; conditions: Homo sapiens
Homo sapiens = species on record: Homo sapiens; assay: Apoptogenic activity against peripheral blood lymphocytes after 24 hr treatment at concentration 30 uM; format: functional
[3] = Aoptogenic activity against Molt cells after 24 hr treatment at concentration 30 uM; format: functional, cell-based; conditions: Homo sapiens

Row | SMILES | Cells [1] [%] | Cells [2] [%] | Cells (Homo sapiens) [%] | Cells [3] [%]
1 | CCCCCCCCC[C@H](O)[C@H](CO)NC(=O)CCCCC | 15 | 9 | 57 | –
2 | CCCCCCC/C=C/[C@@H](O)[C@H](CO)NC(=O)CCCCC | 12.7 | 3.5 | 12 | –
3 | CCCCCCCCC[C@H](F)[C@H](CO)NC(C)=O | 7.3 | – | 3 | 3
4 | CCCCCC(=O)N[C@@H](CO)[C@@H](F)CCc1ccccc1 | 2.5 | 2 | 0.5 | –
5 | CCCCCCC/C=C/[C@@H](F)[C@H](CO)NC(=O)CCCCC | 34.7 | 11 | 40 | –
6 | CCCCCCCCC[C@H](F)[C@H](CO)NC(=O)CCCCC | 32 | 31.6 | 46 | –
7 | CCCCCCCCCCCCC/C=C/[C@@H](O)[C@H](CO)NC(C)=O | 27.7 | 51 | 48.8 | –
8 | CCCCCCC/C=C/[C@H](F)[C@H](CO)NC(=O)CCCCC | 51.2 | 13.7 | 47.7 | –
9 | CCCCCCC/C=C/[C@H](O)[C@H](CO)NC(=O)CCCCC | 32.7 | 1 | 33.5 | –
